Several values for one entry are separate records, joined by “and”; a condition that tells them apart may be missing. Identical values can stand only once.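 Five compound concentrations were applied to cells in 96-well plates for 48 hours; endpoints were derived by simple linear interpolation of the resulting dose-response curve. At the GI50, growth is halved. TGI: total growth inhibition.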
How the values were obtained:
Test in all cases: NCI-60 cell line screen, 48 h
BT-549 breast = system: BT-549 breast
HL-60(TB) leukemia = system: HL-60(TB) leukemia
HOP-92 NSCLC = system: HOP-92 NSCLC
IGROV1 ovarian = system: IGROV1 ovarian
OVCAR-3 ovarian = system: OVCAR-3 ovarian
RPMI-8226 leukemia = system: RPMI-8226 leukemia

Structure (SMILES)	GI50 (BT-549 breast)	TGI (BT-549 breast)	GI50 (HL-60(TB) leukemia) [µM]	TGI (HL-60(TB) leukemia)	GI50 (HOP-92 NSCLC)	TGI (HOP-92 NSCLC)	GI50 (IGROV1 ovarian)	TGI (IGROV1 ovarian)	GI50 (OVCAR-3 ovarian)	TGI (OVCAR-3 ovarian)	GI50 (RPMI-8226 leukemia)	TGI (RPMI-8226 leukemia)
C=C1C(=O)O[C@H]2[C@H]1CC/C(COC(=O)c1ccc(Cl)nc1)=C\CC[C@@]1(C)O[C@@H]21	1.95 µM	6.71 µM	1.57	4.72 µM	2.18 µM	4.84 µM	1.43 µM	6.2 µM	1.03 µM	2.32 µM	1.58 µM	4.87 µM
COc1cc2c3c(n(CCCN(C)C)c(=O)c2cc1OC)-c1ccccc1C3=O	21.4 µM	> 100 µM	–	–	23.2 µM	> 100 µM	1.61 µM	> 51.7 µM	5.83 µM	54.8 µM	0.238 µM	1.53 µM
Nc1nc(SN=Nc2ccc(S(N)(=O)=O)cc2)c2[nH]cnc2n1	1.15 µM	> 100 µM	2.18	> 53.6 µM	0.429 µM	22.4 µM	1.65 µM	> 100 µM	0.511 µM	7.93 µM	0.283 µM	3.33 µM
O=C(Nc1ccc(Br)cc1)c1ccc(Cl)c(Cl)c1	2.74 µM	> 29.8 µM	2.14	7.37 µM	0.341 µM	5.1 µM	2.85 µM	> 100 µM	2.48 µM	7.18 µM	3.15 µM	> 100 µM
Cc1cn2c(/C=C3\C(=O)N(C)c4ccc(O)cc43)c(C)nc2s1	7.57 µM	> 100 µM	2.15	6.1 µM	31.7 µM	> 100 µM	4.26 µM	28.7 µM	2.65 µM	17 µM	5.98 µM	> 100 µM
COc1cc2c(c(OC)n1)[C@]1(O)[C@H](O)[C@H](CN(C)C)[C@@H](c3ccccc3)[C@]1(c1ccc(C#N)cc1)O2	0.0451 µM and 0.0737 µM	0.825 µM and 2.62 µM	< 0.01	0.921 µM and 0.213 µM	0.0521 µM and 0.0346 µM	4.3 µM and 0.991 µM	0.0134 µM and < 0.01 µM	2.44 µM and 1.93 µM	0.0334 µM and 0.0146 µM	2.78 µM and 1.87 µM	0.0151 µM and < 0.01 µM	0.299 µM and 0.15 µM
CC1CCC(=O)C(C(=O)CC2CC(=O)NC(=O)C2)C1 (centres undefined)	–	> 100 µM	–	> 100 µM	–	> 100 µM	–	> 100 µM	–	> 100 µM	–	> 100 µM
COc1ccc2c(c1)C(C)Cc1c(ncnc1-n1c(C)nc3ccccc31)N2C (centres undefined)	5.82 µM	30.6 µM	2.59	9.7 µM	3.34 µM	17.4 µM	6.3 µM	36.2 µM	2.53 µM	8.79 µM	3.96 µM	24.3 µM
C[C@]12CC[C@H](O)C[C@H]1CC[C@@H]1[C@@H]2CC[C@]2(C)[C@@H](C3=CC(=O)OC3)CC[C@]12O	–	0.134 µM	0.0391	0.272 µM	–	1.1 µM	–	2.82 µM	–	0.204 µM	–	0.558 µM
N#C/C(=C/N1CCN(C(=O)c2ccco2)C1=S)C(=O)c1ccccc1	7.77 µM	32.3 µM	31.5	91.5 µM	26.9 µM	> 100 µM	19.4 µM	70.7 µM	18.2 µM	57.2 µM	5.56 µM	> 100 µM
Cc1cc(S(=O)(=O)N/N=C(\Sc2cc(Cl)c(C)cc2S(N)(=O)=O)c2ccc(Cl)cc2)c(Cl)cc1Cl	61.8 µM	> 100 µM	76.4	> 100 µM	47.6 µM	> 100 µM	70.2 µM	> 100 µM	31.1 µM	> 100 µM	27.3 µM	86.4 µM
Cc1cc(I)cc(CN(C)CCCN2CCOCC2)c1O	13.9 µM	85.5 µM	27.7	72 µM	15.7 µM	98.2 µM	20.7 µM	72.6 µM	> 100 µM	> 100 µM	17.8 µM	46 µM
COc1cccc(/C(COc2ccc3c(c2)oc(=O)c2cc(OC)ccc23)=N/O)c1	11.7 µM	> 100 µM	–	–	37 µM	> 100 µM	3.8 µM	> 100 µM	4.18 µM	> 100 µM	4.76 µM	> 100 µM
O=[N+]([O-])c1ccc2c(c1)C(c1ccccc1Cl)=Nc1cn[nH]c1N2	16.2 µM	> 25 µM	14.4	> 25 µM	–	–	> 23.5 µM	> 25 µM	14.1 µM	> 25 µM	> 24.2 µM	> 25 µM
CC(=O)O[C@H](C[C@H](C(C)C)N(C)C(=O)[C@@H](NC(=O)[C@H]1CCCCN1C)C(C)C)c1nc(C(=O)N[C@@H](Cc2ccccc2)C[C@H](C)C(=O)O)c(CCOCc2ccccc2)s1	< 0.001 µM	0.00816 µM	< 0.001	< 0.001 µM	< 0.001 µM	> 10 µM	0.00109 µM	> 10 µM	< 0.001 µM	–	< 0.001 µM	> 10 µM
COc1ccc(C(=O)COc2cccc(/C=C3\Oc4ccc5ccccc5c4C3=O)c2)cc1	2.45 µM	10.3 µM	3.19	18.7 µM	0.0932 µM	25.6 µM	–	–	1.78 µM	3.54 µM	0.345 µM	2.01 µM
Cc1c(C2=C(Br)C(=O)N(C)C2=O)c(=O)n(C)c(=O)n1C	–	51.1 µM	–	41 µM	–	34.4 µM	–	36.5 µM	–	> 100 µM	–	46.3 µM
COc1cc(C2=C(c3cn(C)c4ccccc34)COC2=O)cc(OC)c1OC	0.0615 µM	4.18 µM	0.0425	1.46 µM	0.249 µM	4.91 µM	0.0771 µM	21.7 µM	0.0364 µM	0.437 µM	0.109 µM	1.95 µM
CCC(C)(C)c1ccc(OCCCCCCN2CCNCC2)cc1	–	–	1.76	3.65 µM	1.21 µM	6.82 µM	2.63 µM	7.29 µM	2.73 µM	7.86 µM	1.9 µM	4.41 µM
N=C(N)SCc1cccc(-c2nc3ccccc3c(=O)o2)c1	–	> 100 µM	–	–	–	> 100 µM	–	> 100 µM	–	> 100 µM	–	> 100 µM
O=c1[nH]cnc2cccc(Cl)c12	–	> 100 µM	–	> 100 µM	–	–	–	> 100 µM	–	> 100 µM	–	–
